Measurements published in PubChem BioAssay (NCI).
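Tested at 5 concentrations; 48 h exposure; 96-well plates; endpoints linearly interpolated, else capped at highest concentration. GI50 is the concentration that inhibits growth by half. Definition used: TGI = concentration required for complete inhibition of growth.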

Key:
Test in all cases: growth of human tumour cells (NCI), 48 h
[1] = tested on: KM12 colon
[2] = tested on: HCC-2998 colon
[3] = tested on: SF-539 CNS
[4] = tested on: NCI-H23 lung
[5] = tested on: PC-3 prostate
[6] = tested on: EKVX NSCLC
[7] = tested on: A498 renal
[8] = tested on: MCF7 breast
[9] = tested on: SW-620 colon
[10] = tested on: SK-MEL-28 melanoma

Row | SMILES | GI50 [1] | TGI [1] | GI50 [2] | TGI [2] | GI50 [3] | TGI [3] | GI50 [4] | TGI [4] | GI50 [5] | TGI [5] | GI50 [6] | TGI [6] | GI50 [7] | TGI [7] | GI50 [8] | TGI [8] | GI50 [9] | TGI [9] | GI50 [10] | TGI [10]
1 | CCOC(=O)C(=Cc1cccc(Cl)c1)C(=O)OCC | 2.35 µM | 5.8 µM | 1.79 µM | 3.24 µM | 1.66 µM | 3.14 µM | 2.32 µM | 6.45 µM | 2.05 µM | 4.21 µM | 3.75 µM | 14.3 µM | 11.9 µM | 24.2 µM | 2.12 µM | 8.11 µM | 2.03 µM | 4.1 µM | 1.62 µM | 3.26 µM
2 | COc1ccc(-c2oc(=O)ccc2-c2cc(OC)c(OC)c(OC)c2)cc1F | 4.52 µM | > 100 µM | 33.4 µM | > 100 µM | 19.8 µM | 80.3 µM | 25.9 µM | > 100 µM | 37.2 µM | > 100 µM | 46.4 µM | > 100 µM | 25.1 µM | 92.9 µM | 9.74 µM | > 100 µM | 5.79 µM | > 100 µM | 24.7 µM | > 100 µM
3 | Cc1nc2ccccc2nc1-c1ccc(N=[N+]([O-])c2ccc(-c3nc4ccccc4nc3C)cc2)cc1 |  | > 100 µM |  | > 100 µM |  | > 100 µM |  | > 100 µM |  | > 100 µM |  | > 100 µM |  | > 89 µM |  | > 100 µM |  | > 100 µM |  | > 100 µM
4 | O=C(c1ccc(Cl)cc1)c1cnc(Nc2ccccc2Cl)s1 |  | > 78.3 µM |  | > 87.8 µM |  | 55.3 µM |  | 53.7 µM |  | 55.5 µM |  | 50.5 µM |  | 27.3 µM |  | 86.7 µM |  | > 100 µM |  | 23.4 µM
5 | COc1ccc2[nH]cc(-c3nc(-c4c[nH]c5ncccc45)cs3)c2c1 | 3.56 µM | > 100 µM | 67.3 µM | > 100 µM | 4.88 µM | > 100 µM | 4.38 µM | > 100 µM | 4.33 µM | > 100 µM | 5.79 µM | > 100 µM | 1.16 µM | > 100 µM | 3.33 µM | > 100 µM | 3.46 µM | > 100 µM | 6.43 µM | > 100 µM
6 | Cc1ccc(Cl)cc1Nc1nc(C(F)(F)F)ccc1C(=O)N1CCN(c2cccc(Cl)c2)CC1 | > 100 µM | > 100 µM | 17.8 µM | > 100 µM | > 100 µM | > 100 µM | > 100 µM | > 100 µM | 21.7 µM | > 100 µM | 86.4 µM | > 100 µM | 65.6 µM | > 100 µM | 47.9 µM | > 100 µM | > 100 µM | > 100 µM | > 100 µM | > 100 µM
7 | Oc1cc(O)c2c(c1)OC(c1ccc(O)c(O)c1)C(OC1(c3cc(O)c(O)c(O)c3)Oc3cc(O)cc(O)c3C(O)C1O)C2 (stereo not given) |  | > 70.9 µM |  | > 100 µM |  | > 74.9 µM |  | 50.4 µM |  | > 100 µM |  | 41.6 µM |  | > 49.9 µM |  | 40.2 µM |  | 60.4 µM |  | > 68.5 µM
